Where no end group is shown, it is not given here.
Experiments:
CAF1/J mice = test: Immunogenicity of monomeric and polymerized BSA or OVA without adjuvant, serum ELISA; assay type: in vivo; conditions: for serum anti-BSA IgM response: day 6, injected in saline without adjuvant, FIG. 40; for IgM and IgG anti-protein responses: administered without adjuvant
Procedure: The molecular weight for each fraction was then determined by the use of the Model E analytical ultracentrifuge under equilibrium conditions. During this prolonged series of slow fractionation steps, molecules which were unstable to any of the many steps involved in processing, handling, or storage were fractionated away from the samples, yielding a series of preparations, each of which contained a relatively narrow range of molecular sizes of substantial time stability. These water soluble preparations were then injected into mice intra-peritoneally, without the use of any adjuvant, in order to determine their relative immunogenicity. The level of immune response was determined by measuring serum IgM or IgG antibody levels against BSA or OVA by standard solid state ELISA technique.

anti-104 antibodies = test: Share of anti-104 antibodies directed against 159, direct binding ELISA and competition assay; design: species or system mice
Excerpt: However this peptide can be recognized by B cells since BSA conjugates raise good antibody responses to 159. Furthermore, as mentioned above, a substantial portion of antibodies raised by the 104-conjugates are directed against 159 as indicated both by direct binding in ELISA assay and by competition assay using free 159 to inhibit binding of anti-104 antibodies to 104-gelatin.

[1] = test system: Sera obtained from (NZBxNZW) F1 mice; test: Epitope mapping: binding of lupus mouse sera to histone H2B peptides
Excerpt: This identification process, referred to herein as “epitope mapping”, involves the synthesis of various overlapping peptide fragments which are subsequently analyzed to establish regions of antigenicity. Clearly, the study of the entire H2B structure (125 amino acids) would require a very large amount of peptide synthesis. However, it is known from studies of SLE patients and mice with lupus-like disease that removal of the H2B N-terminal region with trypsin results in a loss of antigenicity (Portanova, J. P., et. al., J. Immunol. 38, 446–457, (1987)). Attention was, therefore, focussed on the synthesis of peptides derived from this region of histone H2B.

Molecule: monomeric BSA: monomeric (68 kD) bovine serum albumin [reference compound]
- serum anti-BSA IgM response (CAF1/J mice): requires substantially higher doses
- anti-BSA IgG response (CAF1/J mice; repeated injections in saline at doses up to 100 μg, FIG. 43): not very effective

Molecule: BSA 70-mer: soluble highly polymerized BSA containing 70 BSA monomers, carbodiimide cross-linked (5000 kD)
- serum anti-BSA IgM response (CAF1/J mice): capable of raising IgM antibodies even at very low doses

Molecule: Polymeric BSA: BSA polymerized to itself through a water soluble carbodiimide, size fractionated
- IgM and IgG anti-protein responses (CAF1/J mice): considerable

Molecule: N-Ac-Cys-(ε-ACA)-Glu-Ala-His^331-Ala-Glu-Ile-Asn-Glu-Ala-Gly-Arg^339-CONH2 ({Ac-Cys-ε‑ACA}-EAHAEINEAGR-NH2; listed as Mus musculus) [compound 159, represents residues 331–339 of chicken ovalbumin (OVA)]
- share of antibody response to 104 attributed to 159 (anti-104 antibodies; 104 arrayed on dextran or BSA): 40–50%
- share of 104 response competed with soluble 159 (anti-104 antibodies; solution phase competition assays (data not shown)): up to 40%

Molecule: Pro-Glu-Pro-Ala-Lys-Ser-Ala-Pro-Ala-Pro-Lys-Lys-Gly-Ser-Lys-Cys-CONH2 (PEPAKSAPAPKKGSKC-NH2) [Lupus 2′]
- binding of sera to peptide [1]: bind strongly

Molecule: N-Acetyl-Ala-Pro-Lys-Lys-Gly-Ser-Lys-Lys-Ala-Val-Thr-Lys-Ala-Gln-Lys-Cys-CONH2 (Ac-APKKGSKKAVTKAQKC-NH2) [Lupus 4′]
- binding of sera to peptide [1]: not

Molecule: N-Acetyl-Cys-Ala-Pro-Lys-Lys-Gly-Ser-Lys-Lys-Ala-Val-Thr-Lys-Ala-Gln-Lys-CONH2 (Ac-CAPKKGSKKAVTKAQK-NH2) [Lupus 3′]
- binding of sera to peptide [1]: not

Molecule: N-Acetyl-Cys-Lys-Ala-Val-Thr-Lys-Ala-Gln-Lys-Lys-Asp-Gly-Lys-Lys-Arg-Lys-CONH2 (Ac-CKAVTKAQKKDGKKRK-NH2) [Lupus 5′]
- binding of sera to peptide [1]: not

B1: Polymeric OVA: OVA polymerized to itself by glutaraldehyde, size fractionated (protein, UniProt P01012 2-386, looked up)
Ovalbumin: GSIGAASMEFCFDVFKELKVHHANENIFYCPIAIMSALAMVYLGAKDSTRTQINKVVRFDKLPGFGDSIEAQCGTSVNVHSSLRDILNQITKPNDVYSFSLASRLYAEERYPILPEYLQCVKELYRGGLEPINFQTAADQARELINSWVESQTNGIIRNVLQPSSVDSQTAMVLVNAIVFKGLWEKAFKDEDTQAMPFRVTEQESKPVQMMYQIGLFRVASMASEKMKILELPFASGTMSMLVLLPDEVSGLEQLESIINFEKLTEWTSSNVMEERKIKVYLPRMKMEEKYNLTSVLMAMGITDVFSSSANLSGISSAESLKISQAVHAAHAEINEAGREVVGSAEAGVDAASVSEEFRADHPFLFCIKHIATNAVLFFGRCVSP
modifications: glutaraldehyde self-polymerized
notes: OVA polymerized to itself by glutaraldehyde, size fractionated
- IgM and IgG anti-protein responses (CAF1/J mice): considerable
